Measured values taken from US20140079632A1, “ACTIVITY-BASED PROBES FOR THE UROKINASE P[…]” (UNIVERSITEIT ANTWERPEN, priority 2011, published 2014).

Tests used:
Type in all cases: biochemical
uPA [1] = molecular target: T1, uPA (Homo sapiens, UniProt P00749); test: uPA inactivation kinetics from progress curves (kobs versus inhibitor concentration, kapp); conditions: 250 μM substrate, 37° C.
T1 construct: purchased Nodia
Protocol: (§1) Inhibitor stock solutions were prepared in DMSO and stored at −20° C. Because the compounds described in this paper completely inactivate uPA following pseudofirst-order kinetics, the IC50 value is inversely correlated with the second-order rate constant of inactivation. For a simple pseudofirst-order inactivation process, the activity after incubation with inhibitor (vi) varies with the inhibitor concentration (i), as described in the following equation: […]
where vo is the activity in absence of inhibitor, k is the second-order rate constant of inactivation, and t is the time. The inactivation rate constant was determined from the time course of inhibition.
The inhibitor was mixed with the substrate (250 μM final concentration), and the buffer solution with the enzyme was added at the time zero. The inhibitor concentrations were chosen to obtain total inhibition of the enzyme within 20 min. The progress curves show the absorbance of p-nitroanilide produced as a function of time. Initially, no inhibitor is bound to the enzyme, and the tangent to the progress curve (dA/dt) is proportional to the concentration of the free enzyme. The concentration of free enzyme decreases over time due to the kinetics of inhibitor binding, as described above. Progress curves were recorded in pseudofirst-order conditions ([I]0>>[E]0) and with less than 10% conversion of the substrate during the entire time course. In these conditions, dA/dt decreases exponentially with time. The progress curves were fitted with the integrated rate equation to yield a value for kobs, a pseudofirst-order rate constant
At=v0[1−e^−k^obs^t]/kobs+A0
where At=absorbance at time t, A0=absorbance at time zero, and v0=uninhibited initial rate.
The apparent second-order rate constant (kapp) was calculated from the slope of the linear part of the plot of kobs versus the inhibitor concentration ([I]0). In case of competition between the inhibitor and the substrate, kapp is smaller than the “real” second order rate constant k discussed above because a certain fraction of the enzyme is present as an enzyme-substrate complex. kapp depends on the substrate concentration used in the experiment, as described by Lambeir et al.^40 For most final compounds, the kobs versus [I]0 plot was not linear, but could be fitted with a hyperbolic function: kobs=k2[I]0/(K1+[I]0) (two step mechanism). Where K1 is the dissociation constant of the reversible enzyme-inhibitor complex and k2 is the first-order rate constant associated with irreversible modification of the enzyme. A kapp could be calculated as k2/K1.

[2] = molecular target: T2, plasmin (from human plasma) (Homo sapiens, UniProt P00747); test: Selectivity: plasmin inhibition, substrate Biophen CS-21(66); conditions: 15 min preincubation; Tris buffer pH 7.4; 580 μM substrate
T2 construct: purchased Sigma; host or cells: human plasma
Protocol: (§2) The substrate and human enzyme were obtained from Nodia. The reaction was monitored at 405 nm, and the initial rate was determined between 0 and 0.25 absorbance units in 20 min. […] A 50 mM Tris buffer, pH 8.8, was used. From each inhibitor concentration, 5 μL was added, obtaining a final concentration from 0 to 250 μM in a total volume of 0.2 mL. Activity measurements were routinely performed in duplicate. […] IC50 values were obtained by fitting the data with the four-parameter logistics equation using Grafit 5.
(§3) The IC50 values for plasmin (from human plasma, Sigma), tPA (recombinant, Nodia), thrombin (from human plasma, Sigma), and FXa were determined in the same way as for uPA.
(§4) For tPA and thrombin, Tris buffer, pH 8.3, was used, for FXa, Tris buffer, pH 8.3, for plasmin, Tris buffer, pH 7.4, was used.

uPA [3] = molecular target: T1, uPA; test: uPA inhibition: in vitro evaluation, IC50 with chromogenic substrate Biophen CS-61(44); conditions: 15 min preincubation at 37° C.; Tris buffer pH 8.8; 250 μM substrate
Protocol: Enzymatic activity was measured at 37° C. in a Spectramax 340 (Molecular Devices) microtiter plate reader using the chromogenic substrate Biophen CS-61(44) (LpyroGlu-Gly L-Arg-p-NA.HCl), with a Km of 80 μM.
The substrate and human enzyme were obtained from Nodia. The reaction was monitored at 405 nm, and the initial rate was determined between 0 and 0.25 absorbance units in 20 min. The reaction mixture contained 250 μM substrate and approximately 1 mU of enzyme in 145 μL of buffer in a final volume of 200 μL. A 50 mM Tris buffer, pH 8.8, was used. From each inhibitor concentration, 5 μL was added, obtaining a final concentration from 0 to 250 μM in a total volume of 0.2 mL. Activity measurements were routinely performed in duplicate. […] IC50 values were obtained by fitting the data with the four-parameter logistics equation using Grafit 5.
where s=slope factor, v=rate, I0=inhibitor concentration, and range=the fitted uninhibited value minus the background. The equation assumes the y falls with increasing x.
as §1

[4] = molecular target: T3, thrombin (from human plasma) (Homo sapiens, UniProt P00734); test: Selectivity: thrombin inhibition, substrate Biophen CS-21(66); conditions: 15 min preincubation; Tris buffer pH 8.3; 580 μM substrate
T3 construct: thrombin (from human plasma, Sigma); purchased Sigma; host or cells: human plasma
Protocol: as §2, §3, §4

tPA (recombinant) = molecular target: T4, tPA (recombinant) (Homo sapiens, UniProt P00750); test: Selectivity: tPA inhibition, substrate Biophen CS-05(88); conditions: for IC50: 15 min preincubation, Tris buffer pH 8.3, 1.25 mM substrate
T4 construct: purchased Nodia
Protocol: as §2, §3, §4

FXa = FXa (Homo sapiens, UniProt P00742); test: Selectivity: FXa inhibition, substrate Biophen CS-11(32); conditions: for IC50: 15 min preincubation, Tris buffer pH 8.3, 522 μM substrate; for FXa % (I) @ 250: at 250 (μM)
[5] = apparent second-order rate constant from slope of kobs versus [I]0, no asterisk
[6] = asterisked: compound showed a two-step mechanism, kapp calculated as k2/K1

T4 sequence (P00750 36-562, species assumed): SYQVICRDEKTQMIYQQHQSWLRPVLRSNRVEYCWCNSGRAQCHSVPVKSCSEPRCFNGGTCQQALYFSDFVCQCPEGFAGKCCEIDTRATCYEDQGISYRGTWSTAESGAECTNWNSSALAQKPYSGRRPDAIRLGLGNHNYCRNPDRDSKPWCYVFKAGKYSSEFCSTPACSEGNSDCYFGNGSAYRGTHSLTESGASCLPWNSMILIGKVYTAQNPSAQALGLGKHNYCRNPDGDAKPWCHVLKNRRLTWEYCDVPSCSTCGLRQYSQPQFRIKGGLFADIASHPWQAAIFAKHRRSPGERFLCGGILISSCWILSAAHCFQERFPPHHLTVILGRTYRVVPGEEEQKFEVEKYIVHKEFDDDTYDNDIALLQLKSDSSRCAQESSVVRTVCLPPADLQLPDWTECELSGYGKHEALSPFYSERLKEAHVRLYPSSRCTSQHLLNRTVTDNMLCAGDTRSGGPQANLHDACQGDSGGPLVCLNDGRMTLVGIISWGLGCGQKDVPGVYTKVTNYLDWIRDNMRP
Sequence of FXa (P00742 235-488 limits assumed): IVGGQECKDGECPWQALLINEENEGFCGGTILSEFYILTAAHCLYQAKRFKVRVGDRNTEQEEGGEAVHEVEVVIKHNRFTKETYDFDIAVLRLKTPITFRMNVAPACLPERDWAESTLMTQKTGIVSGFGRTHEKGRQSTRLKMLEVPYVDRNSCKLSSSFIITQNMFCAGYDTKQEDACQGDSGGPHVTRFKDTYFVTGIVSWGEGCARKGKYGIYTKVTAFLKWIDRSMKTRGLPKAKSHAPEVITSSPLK
Sequence of FXa (P00742 41-179 partner limits assumed): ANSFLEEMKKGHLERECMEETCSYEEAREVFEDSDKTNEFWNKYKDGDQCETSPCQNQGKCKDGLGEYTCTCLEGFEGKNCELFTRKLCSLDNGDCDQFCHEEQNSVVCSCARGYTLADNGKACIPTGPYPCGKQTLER
T2 sequence (P00747 581-810 limits assumed): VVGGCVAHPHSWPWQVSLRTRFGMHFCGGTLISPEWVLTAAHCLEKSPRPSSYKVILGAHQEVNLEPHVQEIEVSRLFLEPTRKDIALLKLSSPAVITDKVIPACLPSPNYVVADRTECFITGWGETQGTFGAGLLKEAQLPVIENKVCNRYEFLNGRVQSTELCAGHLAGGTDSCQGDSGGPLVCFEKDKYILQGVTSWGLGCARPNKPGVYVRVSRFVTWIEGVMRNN
T2 sequence (P00747 97-580 partner limits assumed): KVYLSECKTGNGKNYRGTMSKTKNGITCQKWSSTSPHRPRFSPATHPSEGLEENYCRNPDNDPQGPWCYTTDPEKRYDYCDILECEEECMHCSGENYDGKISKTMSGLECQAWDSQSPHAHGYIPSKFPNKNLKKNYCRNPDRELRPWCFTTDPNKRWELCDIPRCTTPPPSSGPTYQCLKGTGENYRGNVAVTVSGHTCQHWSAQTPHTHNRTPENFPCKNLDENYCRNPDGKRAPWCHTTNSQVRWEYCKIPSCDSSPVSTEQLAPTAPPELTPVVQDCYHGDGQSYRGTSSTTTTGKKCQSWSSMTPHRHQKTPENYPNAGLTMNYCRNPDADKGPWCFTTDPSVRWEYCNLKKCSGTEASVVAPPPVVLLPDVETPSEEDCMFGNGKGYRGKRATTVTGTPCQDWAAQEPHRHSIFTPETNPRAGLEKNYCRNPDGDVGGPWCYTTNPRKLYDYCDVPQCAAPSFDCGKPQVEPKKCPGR

Row | Compound | uPA: kapp (uPA [1]; [5]) | IC50 [2] | IC50 (uPA [3]) | IC50 [4] | IC50 (tPA (recombinant)) | FXa % @ 2.5 (FXa; at 2.5 (μM)) | IC50 (FXa) | FXa % (I) @ 250 (FXa) | uPA: kapp (uPA [1]; [6]) | tPA % I @ 250 (tPA (recombinant); at 250 (μM))
1 | 2-((1E,3E,5E)-5-(1-(6-((2-(4-(3-(((1-(diphenoxyphosphoryl)-2-(4-guanidino phenyl)ethyl)carbamoyl)oxy)propyl)-1H-1,2,3-triazol-1-yl)ethyl)amino)-6-oxohexyl)-3,3-dimethyl indolin-2-ylidene)penta-1,3-dien-1-yl)-1,3,3-trimethyl-3H-indol-1-ium [Final compound 9] | 1600 ± 100 M⁻¹ s⁻¹ | > 2.5 µM | 0.0589 ± 0.0017 µM | > 2.5 µM |  |  |  |  |  | 
2 | CCN(CC)c1ccc2c(-c3ccccc3C(=O)N3CCN(C(=O)CCCCCCCn4cc(COCCOC(=O)NC(Cc5ccc(NC(=N)N)cc5)P(=O)(Oc5ccccc5)Oc5ccccc5)nn4)CC3)c3ccc(=[N+](CC)CC)cc-3oc2c1.O=C(O)C(F)(F)F.[Cl-] (stereo not drawn) [Final compound 1, 2,2,2-trifluoroacetic acid, N-(6-(diethylamino)-9-(2-(4-(8-(4-((2-(((1-(diphenoxyphosphoryl)-2-(4-guanidinophenyl)ethyl)carbamoyl)oxy)ethoxy)methyl)-1H-1,2,3-triazol-1-yl)octanoyl)piperazine-1-carbonyl)phenyl)-3H-xanthen-3-ylidene)-N-ethylethanaminium chloride] | 1700 ± 100 M⁻¹ s⁻¹ | 5.4 ± 0.6 µM | 0.017 ± 0.002 µM | 7.9 ± 1.7 µM | 7.9 ± 0.3 µM | 11% @ 2.5 |  |  |  | 
3 | CCN(CC)c1ccc2c(-c3ccccc3C(=O)N3CCN(C(=O)CCCCCCCn4cc(COCCOCCOC(=O)NC(Cc5ccc(NC(=N)N)cc5)P(=O)(Oc5ccccc5)Oc5ccccc5)nn4)CC3)c3ccc(=[N+](CC)CC)cc-3oc2c1 (stereo not drawn) [Final compound 2, 2,2,2-trifluoroacetic acid, N-(6-(diethylamino)-9-(2-(4-(8-(4-(11-(diphenoxyphosphoryl)-12-(4-guanidinophenyl)-9-oxo-2,5,8-trioxa-10-azadodecyl)-1H-1,2,3-triazol-1-yl)octanoyl)piperazine-1-carbonyl)phenyl)-3H-xanthen-3-ylidene)-N-ethylethanaminium chloride] | 1300 ± 70 M⁻¹ s⁻¹ | 5.4 ± 1.6 µM | 0.019 ± 0.003 µM | 24 ± 21 µM | 33 ± 13 µM |  | 176 ± 128 µM |  |  | 
4 | CCN(CC)c1ccc2c(-c3ccccc3C(=O)N3CCN(C(=O)CCCCCCCn4cc(COCCOCCOCCOC(=O)NC(Cc5ccc(NC(=N)N)cc5)P(=O)(Oc5ccccc5)Oc5ccccc5)nn4)CC3)c3ccc(=[N+](CC)CC)cc-3oc2c1 (stereo not drawn) [Final compound 3, 2,2,2-trifluoroacetic acid, N-(6-(diethylamino)-9-(2-(4-(8-(4-(14-(diphenoxyphosphoryl)-15-(4-guanidinophenyl)-12-oxo-2,5,8,11-tetraoxa-13-azapentadecyl)-1H-1,2,3-triazol-1-yl)octanoyl)piperazine-1-carbonyl)phenyl)-3H-xanthen-3-ylidene)-N-ethylethanaminium chloride] | 2600 ± 200 M⁻¹ s⁻¹ | 11 ± 4 µM | 0.03 ± 0.006 µM | 13.8 ± 1.3 µM | 42 ± 5 µM |  | 39 ± 22 µM |  |  | 
5 | CCN(CC)c1ccc2c(-c3ccccc3C(=O)N3CCN(C(=O)CCCCCCCn4cc(CCCOC(=O)NC(Cc5ccc(NC(=N)N)cc5)P(=O)(Oc5ccccc5)Oc5ccccc5)nn4)CC3)c3ccc(=[N+](CC)CC)cc-3oc2c1.O=C(O)C(F)(F)F.[Cl-] (stereo not drawn) [Final compound 4, 2,2,2-trifluoroacetic acid, N-(6-(diethylamino)-9-(2-(4-(8-(4-(3-(((1-(diphenoxyphosphoryl)-2-(4-guanidinophenyl)ethyl)carbamoyl)oxy)propyl)-1H-1,2,3-triazol-1-yl)octanoyl)piperazine-1-carbonyl)phenyl)-3H-xanthen-3-ylidene)-N-ethylethanaminium chloride] | 4900 ± 90 M⁻¹ s⁻¹ | 4.6 ± 2.3 µM | 0.025 ± 0.007 µM | 3.5 ± 0.8 µM | 8 ± 1 µM |  | 65 ± 14 µM |  |  | 
6 | CCN(CC)c1ccc2c(-c3ccccc3C(=O)N3CCN(C(=O)CCCCCCCn4cc(CCCOC(=O)NC(Cc5ccc(NC(=N)N)cc5)P(=O)(Oc5ccc(NC(C)=O)cc5)Oc5ccc(NC(C)=O)cc5)nn4)CC3)c3ccc(=[N+](CC)CC)cc-3oc2c1.O=C(O)C(F)(F)F.[Cl-] (stereo not drawn) [Final compound 5, 2,2,2-trifluoroacetic acid, N-(9-(2-(4-(8-(4-(3-(((1-(bis(4-acetamidophenoxy)phosphoryl)-2-(4-guanidinophenyl)ethyl)carbamoyl)oxy)propyl)-1H-1,2,3-triazol-1-yl)octanoyl)piperazine-1-carbonyl)phenyl)-6-(diethylamino)-3H-xanthen-3-ylidene)-N-ethylethanaminium chloride] |  | 5.6 ± 1.5 µM | 0.022 ± 0.002 µM | 5.2 ± 0.2 µM | > 62 µM |  |  | 90% @ 250 | 52 × 10^2 ± 1 × 10^2 * M^−1 s^−1 | 
7 | CC1=CC(C)=[N+]2C1=C(CCCCCCCn1cc(CCCOC(=O)NC(Cc3ccc(NC(=N)N)cc3)P(=O)(Oc3ccccc3)Oc3ccccc3)nn1)c1c(C)cc(C)n1[B-]2(F)F.O=C(O)C(F)(F)F (stereo not drawn) [Final compound 6, 10-(7-(4-(3-(((1-(diphenoxyphosphoryl)-2-(4-guanidinophenyl)ethyl)carbamoyl)oxy)propyl)-1-1,2,3-triazol-1-yl)heptyl)-5,5-difluoro-1,3,7,9-tetramethyl-5H-dipyrrolo[1,2-c:2′,1′-f][1,3,2]diazaborinin-4-ium-5-uide 2,2,2-trifluoroacetate] |  | 0.674 ± 0.123 µM | 0.0467 ± 0.0015 µM | ~125 µM |  |  |  | 19% I @ 250 ^ | 12.2 × 10^2 ± 0.5 × 10^2 * M^−1 s^−1 | 19% I @ 250
8 | O=C(O)C(F)(F)F.[N-]=[N+]=NCCOCCOCCOC(=O)NC(Cc1ccc(NC(=N)N)cc1)P(=O)(Oc1ccccc1)Oc1ccccc1 (stereo not drawn) [Intermediate 61, 2-(2-(2-azidoethoxy)ethoxy)ethyl 1-(diphenoxyphosphoryl)-2-(4-guanidinophenyl)ethylcarbamate 2,2,2-trifluoroacetate] |  | 5.7 ± 0.6 µM | 0.015 ± 0.002 µM | 13 µM |  |  |  | 51% @ 250 | 10 × 10^3 ± 4 × 10^3 * M^−1 s^−1 | 
